This passage reports T/C results from PubChem BioAssay AID330 (DTP/NCI, 2004).

This assay concerns P388 leukemia ip, CD2F1 mice, survival T/C. Briefly: NCI In Vivo Anticancer Drug Screen. Data for tumor model P388 Leukemia (intraperitoneal) in CD2F1 (CDF1) mice. The settings on record: endpoint: median survival time, higher = longer survival. An outline of the steps:
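Mice carrying the transplanted tumor received test compound or vehicle. Survival was recorded in each group, and the value is the treated-group measurement divided by that of the vehicle-treated control group.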

Where [1] appears, read: dose: 60.0 mg/kg/injection, schedule: Q01DX005 (ip), vehicle: Klucel (hydroxypropylcellulose) (HPC).
The mark [2] stands for this setting: dose: 50.0 mg/kg/injection, schedule: Q01DX009 (ip), vehicle: saline with Tween-80.
[3] abbreviates: dose: 100.0 mg/kg/injection, schedule: Q01DX009 (ip), vehicle: saline with Tween-80.
Setting [4] is: dose: 200.0 mg/kg/injection, schedule: Q01DX009 (ip), vehicle: saline with Tween-80.
The mark [5] stands for this setting: dose: 50.0 mg/kg/injection, schedule: Q01DX009 (ip), vehicle: Klucel (hydroxypropylcellulose) (HPC).
The mark [6] stands for this setting: dose: 100.0 mg/kg/injection, schedule: Q01DX009 (ip), vehicle: Klucel (hydroxypropylcellulose) (HPC).
Where [7] appears, read: dose: 50.0 mg/kg/injection, schedule: Q01DX005 (ip), vehicle: saline with Tween-80.
Where [8] appears, read: dose: 100.0 mg/kg/injection, schedule: Q01DX005 (ip), vehicle: saline with Tween-80.

Structures are written as SMILES. Values joined by “and” are separate entries in the source; they are usually repeats but may differ in a detail not shown here. Identical values can stand only once. Inconclusive results and toxic doses are left out.

For `CCCCN(CCCC)C(=S)S`, the T/C is, setting by setting: (dose: 15.0 mg/kg/injection, schedule: Q01DX005 (ip), vehicle: Klucel (hydroxypropylcellulose) (HPC)) 105 % of control; (dose: 30.0 mg/kg/injection, schedule: Q01DX005 (ip), vehicle: Klucel (hydroxypropylcellulose) (HPC)) 98 % of control; under setting [1], 88 % of control.

As to `NC(=S)N/N=C\c1nccc2ccc(N)cc12`, the T/C under setting [2] was 94 % of control.

With `CCCCCC(CN1CCOCC1)C(=O)/C=C/c1ccccc1` (centres undefined), the T/C reads like this: under setting [2], 102 % of control; under setting [3], 102 % of control; under setting [4], 101 % of control.

On to `COc1c2c(cc3c1-c1c(cc4c(c1OC)OCO4)CC(C)C(C)C3)OCO2` (centres undefined), for which the T/C reads like this: (dose: 13.75 mg/kg/injection, schedule: Q01DX005 (ip), vehicle: Klucel (hydroxypropylcellulose) (HPC)) 95 % of control; (dose: 27.5 mg/kg/injection, schedule: Q01DX005 (ip), vehicle: Klucel (hydroxypropylcellulose) (HPC)) 98 % of control; (dose: 55.0 mg/kg/injection, schedule: Q01DX005 (ip), vehicle: Klucel (hydroxypropylcellulose) (HPC)) 98 % of control; (dose: 110.0 mg/kg/injection, schedule: Q01DX005 (ip), vehicle: Klucel (hydroxypropylcellulose) (HPC)) 90 % of control.

In the case of `Cc1nc(C(=O)O)cc(Cl)c1C`, the T/C is 100 % of control (dose: 12.5 mg/kg/injection, schedule: Q01DX009 (ip), vehicle: distilled water + Tween-80); 100 % of control (dose: 25.0 mg/kg/injection, schedule: Q01DX009 (ip), vehicle: distilled water + Tween-80); 96 % of control (dose: 50.0 mg/kg/injection, schedule: Q01DX009 (ip), vehicle: distilled water + Tween-80); 100 % of control (dose: 100.0 mg/kg/injection, schedule: Q01DX009 (ip), vehicle: distilled water + Tween-80); 96 % of control (dose: 200.0 mg/kg/injection, schedule: Q01DX009 (ip), vehicle: distilled water + Tween-80).

For the compound `COc1ccc(-c2cc(-c3ccccc3)c(-c3ccccc3)nn2)cc1`, the T/C is 96 % of control under setting [2], 101 % of control under setting [3] and 96 % of control under setting [4].

In the case of `CCOC(=O)C1=C(C(=O)c2ccccc2)C(c2ccc(Cl)cc2Cl)C(C(=O)c2ccccc2)=C(C(=O)OCC)N1`, the T/C runs as follows: (dose: 60.0 mg/kg/injection, schedule: Q01DX005 (ip), vehicle: saline with Tween-80) 93 % of control; (dose: 120.0 mg/kg/injection, schedule: Q01DX005 (ip), vehicle: saline with Tween-80) 90 % of control.

In the case of `S=c1nc(N2CCOCC2)n(/C=C/c2ccccc2)c(=S)n1C(=N/C=C/c1ccccc1)N1CCOCC1`, the T/C reads like this: (dose: 25.0 mg/kg/injection, schedule: Q04DX003 (ip), vehicle: saline with Tween-80) 113 % of control; (dose: 50.0 mg/kg/injection, schedule: Q04DX003 (ip), vehicle: saline with Tween-80) 89 % of control; (dose: 100.0 mg/kg/injection, schedule: Q04DX003 (ip), vehicle: saline with Tween-80) 91 % of control and 97 % of control; (dose: 400.0 mg/kg/injection, schedule: Q04DX003 (ip), vehicle: saline with Tween-80) 87 % of control.

In the case of `O=C1c2ccccc2C(O)(C#Cc2ccccc2)c2c1oc1c2ccc2ccccc21` (centres undefined), the T/C is 97 % of control (dose: 12.5 mg/kg/injection, schedule: Q01DX009 (ip), vehicle: saline with Tween-80); 92 % of control (dose: 25.0 mg/kg/injection, schedule: Q01DX009 (ip), vehicle: saline with Tween-80); 90 % of control under setting [2]; 108 % of control under setting [3].

As to `CCCCOP(O)(=S)OCCCC.[Er]`, the T/C (dose: 100.0 mg/kg/injection, schedule: Q04DX002 (ip), vehicle: saline with Tween-80) is 96 % of control; the T/C (dose: 200.0 mg/kg/injection, schedule: Q04DX002 (ip), vehicle: saline with Tween-80) was 101 % of control; the T/C (dose: 400.0 mg/kg/injection, schedule: Q04DX002 (ip), vehicle: saline with Tween-80) is 95 % of control.

Take `CN(C)CCNC1c2ccccc2CCc2ccccc21`: the T/C runs as follows: (dose: 50.0 mg/kg/injection, schedule: Q01DX005 (ip), vehicle: saline) 104 % of control; (dose: 100.0 mg/kg/injection, schedule: Q01DX005 (ip), vehicle: saline) 100 % of control.

With `COc1cccc2c1C(=O)c1c(O)c3c(c(O)c1C2=O)C[C@@](O)(/C(C)=N\NC(=O)CO)C[C@@H]3OC1CC(N)C(O)C(C)O1` (some centres undefined), the T/C is, setting by setting: (dose: 0.29 mg/kg/injection, schedule: Q04DX003 (ip), vehicle: saline) 118 % of control; (dose: 0.78 mg/kg/injection, schedule: Q01DX009 (ip), vehicle: water) 153 % of control; (dose: 1.0 mg/kg/injection, schedule: Q01DX009 (ip), vehicle: saline) 152 % of control; (dose: 1.0 mg/kg/injection, schedule: Q04DX003 (ip), vehicle: saline) 150 % of control; (dose: 1.32 mg/kg/injection, schedule: Q04DX003 (ip), vehicle: saline) 150 % of control; (dose: 1.5 mg/kg/injection, schedule: Q01DX009 (ip), vehicle: saline) 154 % of control. The T/C (dose: 1.56 mg/kg/injection, schedule: Q01DX009 (ip), vehicle: water) is 160 % of control; the T/C (dose: 2.0 mg/kg/injection, schedule: Q01DX009 (ip), vehicle: water) is 166 % of control; the T/C (dose: 2.0 mg/kg/injection, schedule: Q04DX003 (ip), vehicle: saline) was 154 % of control; the T/C (dose: 2.25 mg/kg/injection, schedule: Q01DX009 (ip), vehicle: saline) was 189 % of control; the T/C (dose: 2.5 mg/kg/injection, schedule: Q04DX003 (ip), vehicle: water) was 119 % of control; the T/C (dose: 3.0 mg/kg/injection, schedule: Q04DX003 (ip), vehicle: saline) was 177 % of control. In addition, the T/C is, setting by setting: (dose: 3.13 mg/kg/injection, schedule: Q01DX009 (ip), vehicle: water) 180 % of control; (dose: 4.0 mg/kg/injection, schedule: Q01DX009 (ip), vehicle: water) 192 % of control; (dose: 5.0 mg/kg/injection, schedule: Q04DX003 (ip), vehicle: water) 119 % of control; (dose: 6.25 mg/kg/injection, schedule: Q01DX009 (ip), vehicle: water) 108 % of control; (dose: 40.0 mg/kg/injection, schedule: Q04DX003 (ip), vehicle: water) 90 % of control; (dose: 80.0 mg/kg/injection, schedule: Q04DX003 (ip), vehicle: water) 90 % of control and 96 % of control.

For `Oc1[nH]c(N=C2N=c3ccccc3=N2)c2ccccc12`, the T/C by setting is: under setting [2], 118 % of control; under setting [3], 103 % of control; under setting [4], 104 % of control.

Regarding `CC1CC23C4CCCN2CC2OC2C13C1CC4OC1=O` (centres undefined), the T/C is 114 % of control (dose: 12.5 mg/kg/injection, schedule: Q01DX009 (ip), vehicle: Klucel (hydroxypropylcellulose) (HPC)); 113 % of control (dose: 25.0 mg/kg/injection, schedule: Q01DX009 (ip), vehicle: Klucel (hydroxypropylcellulose) (HPC)); 115 % of control under setting [5]; 113 % of control under setting [6].

Take `S=c1n(-c2ccc(Cl)cc2)c2nc3ccccc3nc(/c2=N\Nc2ccccc2)n1-c1ccccn1`: the T/C is 91 % of control under setting [7] and 100 % of control under setting [8].

As for `COc1ccccc1N/N=c1\c2nc3ccccc3nc1n(-c1ccccc1C)c(=S)n2-c1ccc(Cl)cc1`, the T/C is 88 % of control under setting [7]; 94 % of control under setting [8]; 103 % of control (dose: 200.0 mg/kg/injection, schedule: Q01DX005 (ip), vehicle: saline with Tween-80).

Consider `COc1ccc2c(c1)-c1nn(CCO)c(-c3ccccn3)c1CC2`, for which the T/C under setting [5] is 109 % of control; the T/C under setting [6] is 106 % of control; the T/C (dose: 200.0 mg/kg/injection, schedule: Q01DX009 (ip), vehicle: Klucel (hydroxypropylcellulose) (HPC)) is 106 % of control.

Take `CC(O)(c1ccco1)c1nc2ccccc2s1` (centres undefined): the T/C by setting is: under setting [1], 101 % of control; (dose: 120.0 mg/kg/injection, schedule: Q01DX005 (ip), vehicle: Klucel (hydroxypropylcellulose) (HPC)) 101 % of control.
